From patent US10051861B2, “N-arylamidine-substituted trifluoroethyl sulfide derivatives as acaricides and insecticides” (BAYER CROPSCIENCE AG, priority 2011, dated 2018)
Read-outs that look alike come from different tables or passages of the source. Marks after values point to notes of the source that are not given here.

Key:
[1] = logP by HPLC on reversed-phase columns (C 18), EEC Directive 79/831 Annex V.A8; type: physicochemical; settings: for logP(HCOOH): pH 2.7; for logP(neutral): pH 7.8; for chromatographic logP: reversed-phase C18 HPLC column
Protocol: Calibration is carried out using unbranched alkan-2-ones (having from 3 to 16 carbon atoms) with known log P values (the log P values are determined by the retention times using linear interpolation between two successive alkanones).

[2] = test system: greenhouse red spider mite (Tetranychus urticae); assay: Tetranychus urticae spray test, OP-resistant (TETRUR), bean leaf disks; type: in vivo; settings: for pest or weed control at 500 g/ha: Tetranychus urticae, foliar, 144 h, read-out: efficacy (spider mites killed)
Protocol: (§1) After 6 days, the effect in % is determined.

[3] = test system: greenhouse red spider mite (Tetranychus urticae); assay: Tetranychus test, OP-resistant (TETRUR spray treatment); type: in vivo; settings: application rate 500 g/ha, after 6 days
Protocol: as §1

[4] = test system: larvae of the mustard beetle (Phaedon cochleariae); assay: Phaedon cochleariae spray test (PHAECO); settings: Phaedon cochleariae, 168 h, read-out: effect (beetle larvae killed)
[5] = test system: cattle ticks (Boophilus microplus); assay: Boophilus microplus injection test (BOOPMI Inj); type: in vivo; settings: for pest or weed control at 0.02 mg: Rhipicephalus microplus, 168 h, read-out: efficacy (laying of fertile eggs)
Protocol: Solvent: dimethyl sulfoxide
1 μl of the active compound solution is injected into the abdomen of 5 engorged adult female cattle ticks (Boophilus microplus). The animals are transferred into dishes and kept in a climate-controlled room.
The activity is assessed after 7 days by laying of fertile eggs. Eggs whose fertility is not visible from the outside are stored in a climate-controlled cabinet until the larvae hatch after about 42 days. An efficacy of 100% means that none of the ticks has laid any fertile eggs; 0% means that all eggs are fertile.

[6] = application rate 500 g/ha, after 6 days
[7] = pH 2.7, [a] LC-MS, acidic range, pH 2.7, 0.1% aqueous formic acid/acetonitrile, read-out: logP(HCOOH)
[8] = application rate 20 μg/animal, injection, after 7 days
[9] = pH 7.8, [b] LC-MS, neutral range, pH 7.8, 0.001 molar aqueous ammonium bicarbonate/acetonitrile, read-out: logP(neutral)

SMILES	efficacy (spider mites killed) [2, 6] [%]	efficacy (spider mites killed) [3] [%]	pest or weed control at 0.02 mg [5, 8] [%]	pest or weed control at 500 g/ha [2, 6] [%]	also measured
Cc1cc(F)c(N=C(N)C(F)F)cc1SCC(F)(F)F [Ia-03]	100	100			log P ([1]; pH 2.3): 2.2^[c]
CNC(=Nc1cc(SCC(F)(F)F)c(F)cc1C)C(F)(F)F [Ia-09]	80	80			logP(HCOOH) [1]: 3.72; logP(neutral) [1]: 3.69
CNC(=Nc1cc(SCC(F)(F)F)c(C)cc1C)C(F)(F)F [Ia-12]	100	100			logP(HCOOH) [1]: 3.95; logP(neutral) [1]: 4.01
Cc1cc(F)c(SCC(F)(F)F)cc1N=C(N)C(F)(F)F [Ia-17]	80	80			logP(HCOOH) [1]: 3.16; logP(neutral) [1]: 3.14
Cc1cc(C)c(SCC(F)(F)F)cc1N=C(N(C)C)C(F)(F)F [Ia-23]	100	100			logP(HCOOH) [1]: 4.87^[a]; 4.87^[b]; logP(neutral) [1]: 4.87^[a]; 4.87^[b]
Cc1cc(F)c(N=C(NC2CC2)C(F)(F)F)cc1SCC(F)(F)F [Ia-26]	100	100			logP(HCOOH) [1]: 4.03; logP(neutral) [1]: 4.02
Cc1cc(F)c(/N=C(\N)C2(F)CC2)cc1SCC(F)(F)F [Ia-27, 1-Fluoro-N′-{2-fluoro-4-methyl-5-[(2,2,2-trifluoroethyl)sulfanyl]phenyl}cyclopropanecarboximidamide]					pest or weed control at 500 g/ha [4]: 100%; pest or weed control at 0.02 mg [5]: 100%; chromatographic logP [1, 7]: 1.2; pest or weed control at 500 g/ha [2]: 100%
Cc1cc(F)c(/N=C2\CCCN2C)cc1SCC(F)(F)F [Ia-39]			100	100	
CN/C(=N\c1cc(SCC(F)(F)F)c(C)cc1F)c1cccc(Cl)c1 [Ia-44]			100	100	
Cc1cc(F)c(/N=C(/c2ccc(Cl)cc2)N(C)C)cc1SCC(F)(F)F [Ia-50]			100	100	
Cc1cc(C)c(SCC(F)(F)F)cc1/N=C(\N)c1cccnc1 [Ia-66]			100	100	
CN/C(=N\c1cc(SCC(F)(F)F)c(C)cc1F)c1ccncc1 [Ia-80]			100	100	
Cc1cc(F)c(/N=C(\N)C(F)(F)Cl)cc1SCC(F)(F)F [Ia-115]			100	100	pest or weed control at 500 g/ha [4]: 100%
Cc1cc(F)c(/N=C(\N)C2(C#N)CC2)cc1SCC(F)(F)F [Ia-118]			100	90	pest or weed control at 500 g/ha [4]: 100%
Cc1cc(F)c(/N=C(\c2cccc(F)c2)N(C)C)cc1SCC(F)(F)F [Ia-120]			100	100	
Cc1cc(F)c(/N=C(\c2ccc(Cl)s2)N(C)C)cc1SCC(F)(F)F [Ia-149, 5-Chloro-N′-{2-fluoro-4-methyl-5-[(2,2,2-trifluoroethyl)sulfanyl]phenyl}-N,N-dimethylthiophene-2-carboximidamide]				90	pest or weed control at 500 g/ha [4]: 100%; chromatographic logP [1, 7]: 2.11; chromatographic logP [1, 9]: 4.89
Cc1cc(F)c(/N=C(\c2cccn2C)N(C)C)cc1SCC(F)(F)F [Ia-162, N′-{2-Fluoro-4-methyl-5-[(2,2,2-trifluoroethyl)sulfanyl]phenyl}-N,N,1-trimethyl-1H-pyrrole-2-carboximidamide]				100	pest or weed control at 500 g/ha [4]: 100%; chromatographic logP [1, 7]: 1.67; chromatographic logP [1, 9]: 4.11
N/C(=N/c1ccc(Cl)c(SCC(F)(F)F)c1)C(F)(F)F [Ia-204, N′-{4-Chloro-3-[(2,2,2-trifluoroethyl)sulfanyl]phenyl}-2,2,2-trifluoroethanimidamide]				90	pest or weed control at 500 g/ha [4]: 83%; chromatographic logP [1, 7]: 3.1; chromatographic logP [1, 9]: 3.1
Cc1cc(F)c(N=C(NC(C)C)C(F)(F)F)cc1[S+]([O-])CC(F)(F)F (centres unmarked) [Ib-03]	100	100			efficacy (laying of fertile eggs) [5, 8]: 100%
CNC(=Nc1cc([S+]([O-])CC(F)(F)F)c(C)cc1C)C(F)(F)F (centres unmarked) [Ib-04]	80	80			logP(HCOOH) [1]: 3.15; logP(neutral) [1]: 3.09
CNC(=Nc1cc([S+]([O-])CC(F)(F)F)c(F)cc1C)C(F)(F)F (centres unmarked) [Ib-05]	80	80			logP(HCOOH) [1]: 2.86; logP(neutral) [1]: 2.79

SMILES	efficacy (spider mites killed) [2, 6] [%]	efficacy (spider mites killed) [3] [%]	pest or weed control at 0.02 mg [5, 8] [%]	pest or weed control at 500 g/ha [2, 6] [%]	also measured
CCCNC(=Nc1cc([S+]([O-])CC(F)(F)F)c(C)cc1F)C(F)(F)F (centres unmarked) [Ib-06]	100	100			logP(HCOOH) [1]: 3.24; logP(neutral) [1]: 3.17
Cc1cc(F)c(/N=C(/NC2CC2)C(F)(F)F)cc1[S+]([O-])CC(F)(F)F (centres unmarked) [Ib-08]	100	100			logP(HCOOH) [1]: 2.68; logP(neutral) [1]: 2.67
Cc1cc(C)c([S+]([O-])CC(F)(F)F)cc1N=C(N(C)C)C(F)(F)F (centres unmarked) [Ib-09]	100	100			logP(HCOOH) [1]: 3.23; logP(neutral) [1]: 3.19
Cc1cc(F)c([S+]([O-])CC(F)(F)F)cc1/N=C(/N)C(F)(F)F (centres unmarked) [Ib-13]	100	100			
Cc1cc(F)c([S+]([O-])CC(F)(F)F)cc1N=C(N(C)C)C(F)(F)F (centres unmarked) [Ib-15]	100	100			logP(HCOOH) [1]: 2.17; logP(neutral) [1]: 2.14
N/C(=N/c1cc([S@+]([O-])CC(F)(F)F)c(Cl)cc1Cl)C(F)(F)F [Ib-17]			100	100	pest or weed control at 500 g/ha [4]: 100%
N/C(=N/c1cc([S+]([O-])CC(F)(F)F)c(Br)cc1Br)C(F)(F)F (centres unmarked) [Ib-18]			100	80	pest or weed control at 500 g/ha [4]: 83%
Cc1cc(F)c(/N=C(\N)C2(F)CC2)cc1[S+]([O-])CC(F)(F)F (centres unmarked) [Ib-19, 1-Fluoro-N′-{2-fluoro-4-methyl-5-[(2,2,2-trifluoroethyl)sulfinyl]phenyl}cyclopropanecarboximidamide]					pest or weed control at 0.02 mg [5]: 100%; pest or weed control at 500 g/ha [2]: 100%
Cc1cc(F)c(/N=C2\CCCN2C)cc1[S+]([O-])CC(F)(F)F (centres unmarked) [Ib-20]			100	100	pest or weed control at 500 g/ha [4]: 100%
CN/C(=N/c1cc([S+]([O-])CC(F)(F)F)c(Br)cc1Br)C(F)(F)F (centres unmarked) [Ib-24]			80	100	
Cc1cc(Cl)c(/N=C(\N)C(F)(F)C(F)(F)F)cc1[S+]([O-])CC(F)(F)F (centres unmarked) [Ib-35]			100	100	
Cc1cc(F)c(/N=C(\N)C(F)(F)C(F)(F)Cl)cc1[S+]([O-])CC(F)(F)F (centres unmarked) [Ib-38]			100	100	
Cc1cc(F)c(/N=C(\N)C(Cl)(Cl)Cl)cc1[S+]([O-])CC(F)(F)F (centres unmarked) [Ib-40]			100	100	
Cc1cc(F)c(/N=C(/c2cccnc2)N(C)C)cc1[S+]([O-])CC(F)(F)F (centres unmarked) [Ib-47]			100	100	
Cc1cc(F)c(/N=C(\N)c2ccc(Cl)nc2)cc1[S+]([O-])CC(F)(F)F (centres unmarked) [Ib-48]			100	100	
CN/C(=N\c1cc([S+]([O-])CC(F)(F)F)c(C)cc1F)c1ccccn1 (centres unmarked) [Ib-58]			100	100	
CN(C)/C(=N/c1cc([S+]([O-])CC(F)(F)F)c(Br)cc1F)C(F)(F)F (centres unmarked) [Ib-59]			100	100	
Cc1cc(Cl)c(/N=C(/N)C(F)(F)F)cc1[S+]([O-])CC(F)(F)F (centres unmarked) [Ib-68]			100	100	pest or weed control at 500 g/ha [4]: 100%
Cc1cc(Cl)c([S+]([O-])CC(F)(F)F)cc1/N=C(\N)C(F)(F)F (centres unmarked) [Ib-85]			100	100	
CN/C(=N\c1cc([S+]([O-])CC(F)(F)F)c(Cl)cc1Cl)c1ccc(Cl)nc1 (centres unmarked) [Ib-89]			80	100	
N/C(=N/c1ccc(Cl)c([S+]([O-])CC(F)(F)F)c1)C(F)(F)F (centres unmarked) [Ib-108, N′-{4-Chloro-3-[(2,2,2-trifluoroethyl)sulfinyl]phenyl}-2,2,2-trifluoroethanimidamide]			100	100	pest or weed control at 500 g/ha [4]: 83%; chromatographic logP [1, 7]: 2.25; chromatographic logP [1, 9]: 2.21
